Data: patent US8946301B2, “Targeting of T-lymphocytes to treat amyotrophic lateral sclerosis” (ALS Therapy Development Institute, priority 2011, dated 2015)

Experiments:
[1] = test system: CD11b positive macrophages; test: Macrophage infiltration into gastrocnemius muscle / peripheral axons (anti-CD11b staining); format: in vivo, mouse; settings: SOD1 animals, load 2.5 mg/kg then 1.8 mg/kg oral weekly from day 50, gastrocnemius at day 100, vs untreated SOD1
Method: SOD1 animals were treated with a loading dose of 2.5 mg/kg fingolimod, followed by weekly oral dosing of 1.8 mg/kg. Dosing was initiated at 50 days of age for the three cohorts: • 1) Non transgenic controls • 2) untreated SOD1 • 3) SOD1 Fingolimod Treated “High Dose” (Load 2.5 mg/kg, 1.8 mg/kg Oral q7d)
Gastrocnemius muscle was harvested from non-transgenic control, untreated SOD1 and fingolimod treated animals at 100 days of age. Tissues were immediately embedded in OCT after harvesting. Frozen sections were H&E stained and hybridized with antibodies to detect macrophages (αCD11b antibody).

blood cells = test: Complete blood cell counts in whole blood; format: in vivo, mouse; settings: vs untreated SOD1
Method: FIG. 6 is a graph showing complete blood cell counts in whole blood. SOD1 animals received a loading dose of 2.5 mg/kg fingolimod orally, then oral 1.8 mg/kg once weekly for 3 weeks. Complete blood cell counts included basophils (BAS), eosinophils (EOS), monocytes (MON), lymphocytes (LYM), neutrophils (NEU), and white blood cells (WBC).
Whole blood counts were also measured. Upon sacrifice, blood was removed and complete blood cell counts were performed.

[2] = test system: lymphocytes in peritoneal lavage fluid; test: Lymphocyte cell counts in peritoneal lavage fluid by FACS; format: in vivo, mouse; settings: vs untreated SOD1
Method: FIG. 4 is a graph showing cell counts in peritoneal lavage fluid. SOD1 animals received a loading dose of 2.5 mg/kg fingolimod orally, then oral 1.8 mg/kg once weekly for 3 weeks. Lymphocyte counts were measured via FACS for various cell surface antigens in the peritoneal lavage fluid.
SOD1 mice received a loading dose of 2.5 mg/kg fingolimod orally, then oral 1.8 mg/kg once weekly for 3 weeks. After sacrifice, several measurements were performed. To determine the lymphocyte cell count in peritoneal lavage fluid, peritoneal lavage fluid was removed after sacrifice of the animals and the peritoneal lavage fluid was subjected to fluorescent activated cell sorting for each of the cell surface antigens: CD11b, CD28, CD3, CD4, CD86, […], and LY6G. Lymphocyte cell count from SOD1 fingolimod treated mice was compared to untreated SOD1 mice in FIG. 4.

[3] = test system: experimental autoimmune neuritis; settings: Zhang et al. 2008, cited from earlier work
[4] = cited from earlier work
G93A-SOD1 mice = test: Disease progression, onset and survival in the SOD1 ALS mouse model; format: in vivo; settings: vs untreated SOD1
Excerpt: FIGS. 7A, 7B, 7C, and 7D are charts showing symptomatic neurological disease progression in untreated SOD1 mice and SOD1 fingolimod treated mice. FIGS. 7A and 7C show the results for SOD1 mice having a low number (14-20) of copies of the transgene. FIGS. 7B and 7D show the results for SOD1 mice having a high number (20-25) copies of the transgene. Neurological disease progression was defined as the average neurological score over time for male SOD1 mice. For each chart, the lower line represents the SOD1 fingolimod treated mice; the upper line (i.e., having lower probability at each age in days, Dage) represents the untreated SOD1 mice.
FIG. 8A is a chart comparing disease onset probability as assessed by the Cox Proportional Hazards model in untreated SOD1 and SOD1 fingolimod treated mice. The black right line represents the SOD1 fingolimod treated mice; the gray left line represents the untreated SOD1 mice.
FIG. 8B is a chart comparing survival as assessed by the Cox Proportional Hazards model in untreated SOD1 mice and SOD1 fingolimod treated mice for individual animals. The black right line represents the SOD1 fingolimod treated mice; the gray left line represents the untreated SOD1 mice.
FIG. 9A is a chart showing disease onset probability as calculated by the Weibull method versus time in untreated SOD1 mice and SOD1 fingolimod treated mice. The right line represents the SOD1 fingolimod treated mice; the left line represents the untreated SOD1 mice.
FIG. 9B is a chart showing survival as calculated by the Weibull method versus time in untreated SOD1 mice and SOD1 fingolimod treated mice. The right line represents the SOD1 fingolimod treated mice; the left line represents the untreated SOD1 mice.
To assess the impact of reducing T lymphocyte cell proliferation on disease progression in the SOD1 preclinical animal model, fingolimod was administered to SOD1 mice and parameters of disease progression were measured, including daily measurements of neurological severity score, as well as T lymphocyte cell proliferation.
Neurological scores for both hind legs were assessed daily for each mouse from 50 days of age. The neurological score employed a scale of 0 to 4 that was developed by observation at ALSTDI (Scott et al., 2008). […] Animals were assigned a score of 2 when the toes curled under at least twice during walking a distance of 12 inches, or any part of the foot was dragging along the cage bottom/table. Animals were assigned a score of 3 when they had rigid paralysis or minimal joint movement, or a foot was not being used for forward motion. Animals were assigned a score of 4 when they […] within 30 seconds after being laid on either side. At the point where at least one hind leg was scored as 2, food pellets were left on the cage bedding to permit easy access to food. If both hind legs were scored as 2, Nutra-Gel® (Bio-Serve #S4798) was provided as food in addition to food pellets placed on the cage bedding and a long sipper tube was placed on the water bottle.
Date and cause of death were recorded for each mouse. For humane reasons, animals were closely monitored and sacrificed as moribund prior to actual death using criteria for severe moribundity. To determine duration of survival reliably and humanely, the moribund state, defined as the inability of mice to right themselves 30 seconds after being placed on a side (a neurological score of 4) was used. The moribund mice were scored as “dead,” and were euthanized using carbon dioxide asphyxiation.
To determine the impact of reducing T lymphocyte cell proliferation on disease progression in the SOD1 preclinical animal model, a Weibull analysis was performed on the data from the animal study described in Examples 3-5.

[5] = test system: lymphocytes, dendritic cells, regulatory T cells; settings: cited from earlier work
[6] = load 2.5 mg/kg oral then 1.8 mg/kg once weekly for 3 weeks

CCCCCCCCc1ccc(CCC(N)(CO)CO)cc1 [fingolimod, 2-amino-2-(4-octylphenethyl)propane-1,3-diol]
CD11b positive macrophages infiltrating the skeletal muscle / peripheral axons [1]: significantly fewer | CD11b positive macrophages infiltrating the skeletal muscle / peripheral axons ([1]; listed as Fingolimod): ability to block macrophage infiltration into peripheral axons | basophils (BAS) count (blood cells; [6]): decreased numbers | eosinophils (EOS) count (blood cells; same regimen): decreased numbers | lymphocytes (LYM) count (blood cells; same regimen): decreased numbers | monocytes (MON) count (blood cells; same regimen): decreased numbers | neutrophils (NEU) count (blood cells; same regimen): no significant change | white blood cells (WBC) count (blood cells; same regimen): decreased numbers | lymphocyte count, CD11b [2, 6]: decreased lymphocyte count | lymphocyte count, CD4 ([2]; same regimen): decreased lymphocyte count | lymphocyte count, CD28 ([2]; same regimen): decreased lymphocyte count | lymphocyte count, CD86 ([2]; same regimen): decreased lymphocyte count | lymphocyte count, CTLA34 ([2]; same regimen): decreased lymphocyte count | lymphocyte count, LY6G ([2]; same regimen): decreased lymphocyte count | severity and duration of experimental autoimmune neuritis [3]: reduced the severity and duration | paraparesis ([3]; if administrated with immunization): suppress paraparesis | CNS penetration and localization ([4]; Foster et al. 2007): CNS penetrant and localizes in the CNS white matter | brain/plasma ratio (in words) ([4]; Meno-Tetang 2006): high | plasma half-life (in words) ([4]; Meno-Tetang 2006): relatively long | disease onset probability (Weibull method) (G93A-SOD1 mice; SOD1 mice): reduced disease onset probability | survival probability (Weibull method) (G93A-SOD1 mice; SOD1 mice): increased survival probability | neurological score over time (G93A-SOD1 mice; male SOD1 mice, high copy number (20-25 copies)): improvement | neurological score over time (G93A-SOD1 mice; male SOD1 mice, low copy number (14-20 copies)): improvement | disease onset probability (Cox Proportional Hazards model) (G93A-SOD1 mice; male SOD1 mice): delayed onset of disease | survival (Cox Proportional Hazards model) (G93A-SOD1 mice; male SOD1 mice): extended survival | circulating dendritic cells ([5]; Lan 2005, 2008): large increase | effect on lymphocyte population ([5]; Tsunemi 2010 and Zemann 2006): lymphopenia | regulatory T cells ([5]; Zhang et al. 2009): increase
